Measurements published in patent publication EP0104572A1, “Benzyl ethers of phenol Mannich bases, process for their production, their use and pharmaceutical preparations based on these compounds, intermediates and process for their production” (priority 1982, dated 1984).
Where two headings read alike, the source gives them in different places.

What was measured:
[1] = test system: Serum-Lipoproteine; assay: Change of serum and lipoprotein-fraction cholesterol in rats after 7 days of oral treatment (ultracentrifuge fractionation, CHOD-PAP cholesterol); type: in vivo, männlichen Wistar-Ratten; conditions: for change in vivo at 30 mg/kg / change in vivo at 100 mg/kg / change in vivo at 10 mg/kg / change in vivo at 3 mg/kg / change in vivo at 1 mg/kg / change in vivo at 20 mg/kg: Rattus norvegicus, 168 h, oral (gavage), 7 days, male Wistar rats; for change in vivo at 30 mg/kg: 30 mg/kg / Tag; for change in vivo at 100 mg/kg: 100 mg/kg / Tag; for change in vivo at 10 mg/kg: 10 mg/kg / Tag; for change in vivo at 3 mg/kg: 3 mg/kg / Tag; for change in vivo at 1 mg/kg: 1 mg/kg / Tag; for change in vivo at 20 mg/kg: 20 mg/kg / Tag
Description: (§1) Die Wirkung der angeführten Verbindungen auf die Serum- Lipoproteine wurde an männlichen Wistar-Ratten untersucht, die 7 Tage per Schlundsonde mit den angeführten in Polyäthylenglykol 400 suspendierten Verbindungen behandelt wurden. Außerdem wurde eine Kontrollgruppe, die nur das Lösungsmittel Polyäthylenglykol 400 erhielt, mitgeführt, sowie bei den meisten Versuchen eine Ratten-Gruppe mit dem Standardhypolipidämikum Clofibrat. Pro Gruppe wurden in der Regel 10 Tiere eingesetzt, denen am Ende der Behandlung das Blut nach leichter Äthernarkose aus dem Orbitalplexus entnommen wurde. Aus dem gewonnenen Ratten-Serum wurden die Serum- Lipoproteine in der präparativen Ultrazentrifuge in folgende Dichteklassen getrennt: VLDL < 1,006; LDL 1,006 bis 1,04; HDL 1,04 bis 1,21
Da nämlich im Gegensatz zum Menschen die Serumlipoproteine der Ratte etwa 4/5 HDL-Cholesterin und nur 1/5 LDL-Cholesterin enthalten und nur sehr geringe Mengen von VLDL (beim Menschen umgekehrt etwa 2/3 LDL und VLDL und nur 1/3 bis 1/4 HDL), macht die Beurteilung einer hypolipidämischen Wir- .kung an der Ratte unbedingt eine Fraktionierung des Ratten-serums in Lipoproteinklassen erforderlich. Eine bloße Erniedrigung des Serum-Total-cholesteringehaltes an der Ratte würde nämlich nur die unerwünschte Erniedrigung der bei der Ratte vorwiegenden antiatherogenen HDL-Klasse anzeigen. Eine erwünschte Erniedrigung von LDL bei gleichzeitiger erwünschter Vermehrung von HDL hätte aber keine (wesentliche) Auswirkung auf den Totalcholesteringehalt des Ratten-Serums.
Aus den in der Ultrazentrifuge isolierten LipoproteinFraktionen wurde das darin enthaltene Cholesterin vollenzymatisch nach der CHOD-PAP-Methode mittels der Testkombination von Boehringer-Mannheim bestimmt und die Werte in µg/ml Serum umgerechnet. In der angeführten Tabelle ist die Veränderung des Lipoprotein-Cholesterins in der behandelten Gruppe gegenüber einer unter gleichen Bedingungen mitgeführten Kontrollgruppe angegeben.
Veränderung in % der Lipoproteine im Ratten-Serum nach siebentägiger oraler Applikation der Verbindungen

[2] = Change of relative liver weight and liver findings in the 7-day oral rat study; type: in vivo, männlichen Wistar-Ratten; conditions: for % Veränderung des relativen Lebergewichtes: oral (gavage), 7 days, male Wistar rats
Description: Die erfindungsgemäßen Verbindungen haben wertvolle therapeutische Eigenschaften. So erniedrigen sie vor allem die Konzentration von LDL und VLDL, die HDL-Fraktion aber kaum, in vielen Fällen wird diese Fraktion sogar vermehrt. Diese Verbindungen stellen daher einen wesentlichen Fortschritt gegenüber der Vergleichsverbindung Clofibrat dar, wie aus .den nachfolgend beschriebenen Daten ersichtlich ist. Sie können daher zur Prophylaxe und Regression von arteriosklerotischen Veränderungen herangezogen werden, indem sie einen kausalen Risikofaktor ausschalten. Hierzu zählen nicht nur die primären Hyperlidämien, sondern auch gewisse sekundäre Hyperlipidämien wie sie z.B. beim Diabetes vorkommen. […] Die mit einer hypolipidämischen Wirkung verbundene unerwünschte Beeinflussung der Leber zeigt sich auch in sehr starkem Maße bei der in J.Med.Chem. 18 (1975) S. 833-836 beschriebenen Vergleichsverbindung 1-(4-Methylbenzyl)-imidazol. […] Die erfindungsgemäßen Verbindungen zeigen dieses unerwünschte Verhalten nicht.
as §1

[3] = read-out: Cholesterolveränderung in %, bezogen auf die Kontrollgruppe in den Serum-Lipoprotein-Fraktionen LDL
[4] = read-out: Cholesterolveränderung in %, bezogen auf die Kontrollgruppe in den Serum-Lipoprotein-Fraktionen VLDL
[5] = read-out: Cholesterolveränderung in %, bezogen auf die Kontrollgruppe im Serum
[6] = read-out: Cholesterolveränderung in %, bezogen auf die Kontrollgruppe in den Serum-Lipoprotein-Fraktionen HDL

SMILES	change in vivo at 30 mg/kg [1, 3] [%]	change in vivo at 30 mg/kg [1, 4] [%]	change in vivo at 10 mg/kg [1, 5] [%]	change in vivo at 10 mg/kg [1, 3] [%]	change in vivo at 10 mg/kg [1, 4] [%]	change in vivo at 3 mg/kg [1, 6] [%]	change in vivo at 3 mg/kg [1, 3] [%]	change in vivo at 3 mg/kg [1, 4] [%]	change in vivo at 10 mg/kg [1, 6] [%]	also measured
Cc1cc(Cn2ccnc2)cc(C)c1OCc1ccc(C2(C(C)(C)C)OCCO2)cc1 [Beispiel 1.52]	-23	-36	–	–	–	–	–	–	–	–
Cc1cc(Cn2cccn2)cc(C)c1OCc1ccc(C(=O)C(C)(C)C)cc1 [Beispiel 1.21]	-35	-62	–	–	–	–	–	–	–	change in vivo at 30 mg/kg [1, 5]: 0%
CCOC(=O)C(C)(C)Oc1ccc(Cl)cc1 [Clofibrat, reference compound]	–	–	–	–	–	–	–	–	–	change in vivo at 100 mg/kg [1, 5]: -29%; change in vivo at 100 mg/kg [1, 6]: -34%; change in vivo at 100 mg/kg [1, 3]: -18%; change in vivo at 100 mg/kg [1, 4]: -48%; Wirkung auf die Lipoproteinfraktionen (VLDL, LDL, HDL) ([1]; statement in words summarising the table, rat serum, 7 days oral): stärkere Verminderung der HDL- als der LDL-Fraktion; relatives Lebergewicht ([2]; rat, in vivo): starken Erhöhung des relativen Lebergewichts
Cc1cc(Cn2cncn2)cc(Cl)c1OCc1ccc(C(=O)C(C)(C)C)cc1 [Beispiel 1.19]	–	–	-11	-29	-35	–	–	–	–	–
Cc1cc(Cn2ccnc2)cc(C)c1OCc1ccc(C(=O)C(C)(C)CCl)cc1 [Beispiel 1.16]	–	–	-15	-52	-24	-11	-32	-32	-1	–
Cc1ccc(Cn2ccnc2)cc1 [1-(4-Methyl-benyl)-imidazol, 1-(4-Methylbenzyl)-imidazol, reference compound]	-90	-100	16	-3	-23	18	-5	10	22	change in vivo at 3 mg/kg [1, 5]: 11%; change in vivo at 30 mg/kg [1, 5]: -44%; change in vivo at 30 mg/kg [1, 6]: -24%; unerwünschte Beeinflussung der Leber ([2]; rat, in vivo): massive Hepatomegalie mit massiven Neutralfett- und Cholesterineinlagerungen
C=CCc1cc(Cn2ccnc2)cc(C)c1OCc1ccc(C(=O)C(C)(C)C)cc1 [Beispiel 1.2]	-39	-31	–	–	–	–	–	–	–	change in vivo at 30 mg/kg [1, 6]: 9%
CC(C)c1cc(Cn2ccnc2)cc(C(C)C)c1OCc1ccc(C(O)C(C)(C)C)cc1 (stereo not drawn) [Beispiel 2.4]	-38	-50	–	–	–	–	–	–	–	change in vivo at 30 mg/kg [1, 5]: -12%
CC(C)(C)C(=O)c1ccc(COc2c(Cl)cc(Cn3ccnc3)cc2Cl)cc1 [Beispiel 1.6]	–	–	–	-32	–	–	–	–	7	–
Cc1cc(Cn2ccnc2)cc(C)c1OCc1ccc(C(=O)C(C)(C)C)cc1 [Beispiel 3, 4-[2,6-Dimethyl-4-(imidazol-1-ylmethyl)-phenoxymethyl]-phenyl-tert.-butyl-keton]	–	–	–	-45	-58	2	-36	17	2	change in vivo at 1 mg/kg [1, 6]: 5%; change in vivo at 1 mg/kg [1, 3]: -33%; change in vivo at 1 mg/kg [1, 4]: 30%; % Veränderung des relativen Lebergewichtes ([2]; 1 mg/kg / Tag): -2%; % Veränderung des relativen Lebergewichtes ([2]; 3 mg/kg / Tag): -4%
Cc1cc(Cn2ccnc2)cc(C)c1OCc1ccc(C(=O)c2ccc(Cl)cc2)cc1 [Beispiel 1.46]	–	–	–	-35	-29	–	–	–	–	–
Cc1cc(Cn2ccnc2)cc(Cl)c1OCc1ccc(C(O)C(C)(C)C)cc1 (stereo not drawn) [Beispiel 5, α-Tert.-butyl-4-[2-Chlon-6-methyl-4-(imidazol-1-ylmekthyl)-phenoxymethyl]-benzylalkohol]	–	–	-23	-59	-46	18	-47	-10	–	change in vivo at 1 mg/kg [1, 3]: -39%; change in vivo at 1 mg/kg [1, 4]: -13%; % Veränderung des relativen Lebergewichtes ([2]; 3 mg/kg / Tag): +13%
COc1cc(Cn2ccnc2)cc(OC)c1OCc1ccc(C(=O)C(C)(C)C)cc1 [Beispiel 1.8]	–	–	–	–	–	–	–	–	–	change in vivo at 20 mg/kg [1, 5]: -19%; change in vivo at 20 mg/kg [1, 6]: -4%; change in vivo at 20 mg/kg [1, 3]: -43%; change in vivo at 20 mg/kg [1, 4]: -19%
C=CCc1cc(Cn2ccnc2)cc(C)c1OCc1ccc(C(O)C(C)(C)C)cc1 (stereo not drawn) [Beispiel 2.2]	-49	-34	–	–	–	–	–	–	–	change in vivo at 30 mg/kg [1, 6]: 14%
Cc1cc(Cn2ccnc2)cc(Cl)c1OCc1ccc(C(=O)C(C)(C)C)cc1 [Beispiel 1, 4-[2-Chlor-4-(-imidazol-1-ylmethyl)-6-methylphenoxymethyl]-phenyl-tert.-butyl-keton]	–	–	-17	-52	0	3	-42	0	-5	change in vivo at 1 mg/kg [1, 6]: 8%; change in vivo at 1 mg/kg [1, 3]: -40%; change in vivo at 1 mg/kg [1, 4]: 0%; change in vivo at 3 mg/kg [1, 5]: -12%; % Veränderung des relativen Lebergewichtes ([2]; 1 mg/kg / Tag): +4%; % Veränderung des relativen Lebergewichtes ([2]; 3 mg/kg / Tag): +9%
C=CCc1cc(Cn2ccnc2)cc(Cl)c1OCc1ccc(C(=O)C(C)(C)C)cc1 [Beispiel 1.7]	–	–	–	–	–	–	–	–	–	change in vivo at 20 mg/kg [1, 5]: -18%; change in vivo at 20 mg/kg [1, 6]: -7%; change in vivo at 20 mg/kg [1, 3]: -43%
